Results reported in patent US12465618B2, “Compositions and methods for degenerative disc regeneration” (University Health Network, priority 2015, dated 2025).
Where two headings read alike, the source gives them in different places.

Experiments:
Format in all cases: cell-based
rat NP cells [1] = assay: Western blotting of rat NP cells treated with IL-1β/TNFα with or without inhibitors or growth factors
Method: (§1) After euthanasia, healthy rat lumbar/caudal spine IVDs, injured tail discs and bovine caudal IVD NPs were removed aseptically and the nucleus pulposus (NP) was removed separately and enzymatically digested according to methods established by the present inventors^16. Similarly, human degenerative disc NPs were enzymatically digested using Pronase (0.4%, 1 hr at 37° C.) followed by Collagenase II treatment (0.015%, O/N, 37° C.). The following day, the cells were filtered with a 70p cell strainer and cultured within a hypoxic incubator (NuAire, MN, USA) in 3.5% O2, 5% CO2, in Advanced Dulbecco's modified Eagle's medium (ADMEM) supplemented with 8% fetal bovine serum (FBS) and penicillin and streptomycin (100 U/mL). For treatments, the cells were either cultured in serum free ADMEM (no treatment controls) or treated with interleukin-1β (IL-1β, 10 ng/mL), tumor necrosis factor-alpha (TNFα, 50 ng/mL), connective tissue growth factor (CTGF, 10-100 ng/mL), Wnt-inducible soluble protein 2 (WISP2, 10-100 ng/mL) or transforming growth factor beta 1 (TGFβ1, 5-20 ng/mL) for various time points under hypoxic conditions.
(§2) Equal amounts of whole cell or tissue lysates prepared using RIPA lysis buffer were subjected to Western blotting as described earlier^18,19. Total lysates (30 μg) were resolved on 10% sodium dodecyl sulphate-polyacrylamide gels (SDS-PAGE) under reducing conditions and then proteins were electro-transferred onto polyvinyledendifluoride (PVDF) membranes (BioRad, CA). After blocking with 5% non-fat powdered milk in Tris-buffered saline (TBS, 0.1 M, pH=7.4), blots were incubated with rabbit or goat polyclonal/mouse monoclonal primary antibodies at 4° C. overnight. […] Blots were washed three times with TTBS for 15 minutes and protein bands were detected by the enhanced chemiluminescence method (BioRad, CA) on Kodak Hyperfilm.

[2] = system: human degenerative disc NP cells; assay: Western blotting of human degenerative disc NP cells; details: IL-1β and TNFα, Western blots, FIG. 2h
Method: as §1, §2

rat NP cells [3] = assay: ECM and cell adhesion molecule gene array, real time quantitative PCR; details: 24 hrs, vs no treatment control
Method: To determine the effect of IL-1β and TNFα on ECM turnover, rat NP cells were treated with IL-1β alone or in combination with TNFα for 24 hrs and real time quantitative PCR was performed using the ECM and cell adhesion molecule gene arrays (includes 84 genes).
as §1
Total RNA from healthy and treated (IL-1β alone or in combination with TNFα) rat NP cells, were isolated using RNAeasy extraction kit (Cat #74134, Qiagen) and quantified using a Nanodrop spectrophotometer. Total RNA (˜400 ng) was reverse-transcribed using RT^2 First Strand Kit (Cat #330401, Qiagen) following the manufacturer's instructions for preparing cDNA. To evaluate the effect of IL-1β alone or in combination with TNFα on extra-cellular matrix (ECM) genes in rat NP cells, the RT^2 Profiler™ PCR Array Rat Extracellular Matrix & Adhesion Molecules (PARN-013Z, Qiagen) was used and compared with no treatment controls (NTC) in 3 independent experiments using real time PCR performed on ABI 7900HT 384-well Fast block machine. Data analysis including calculation of ΔΔCt values, fold changes and p-values was carried out using software available online (https://www.qiagen.com/ca). Total RNA was isolated from human degenerative disc NP cells (H1/H2) treated with CTGF, TGFβ1, CTGF+TGFβ1 to evaluate their effect on collagen 2, HAPLN1, versican and thrombospondin 1 using gene specific primers. Similarly, RNA was isolated from human NP cells were treated with […] alone or in combination TNFα in presence of CTGF and TGFβ1 to determine their effect on Cox2 and MMP-13 expression using qRT-PCR.

[4] = rat NP cells treated with IL-1β and TNFα, Western blot, FIG. 2f-2g

Cc1ccc(S(=O)(=O)/C=C/C#N)cc1 [BAY-11-7082]
IL-1β and TNFα induced MMP-3, MMP-13 and Cox2 expression in presence of inhibitor (rat NP cells [1]; [4]): Reduced expression
cytokine induced Cox2 expression in presence of inhibitor [2]: decreased expression

C[S+]([O-])c1ccc(-c2nc(-c3ccncc3)c(-c3ccc(F)cc3)[nH]2)cc1 (stereo not shown) [SB203580]
MMP-3, MMP-13 and Cox2 expression in presence of inhibitor (rat NP cells [1]; IL-1β treated rat NP cells, Western blot, FIG. 2f): reduced expression
cytokine induced Cox2 expression in presence of inhibitor [2]: decreased expression

C[C@H](NC(=O)/C(C#N)=C/c1cccc(Br)n1)c1ccccc1 [STAT3 inhibitor]
IL-1β and TNFα induced MMP-3, MMP-13 and Cox2 expression in presence of inhibitor (rat NP cells [1]; [4]): Reduced expression
cytokine induced Cox2 expression in presence of inhibitor [2]: decreased expression

N#CC(=C(/N)Sc1ccccc1N)/C(C#N)=C(\N)Sc1ccccc1N [U0126]
IL-1β and TNFα induced MMP-3, MMP-13 and Cox2 expression in presence of inhibitor (rat NP cells [1]): failed to induce

COC[C@H]1OC(=O)c2coc3c2[C@@]1(C)C1=C(C3=O)[C@@H]2CCC(=O)[C@@]2(C)C[C@H]1OC(C)=O [Wortamanin]
IL-1β and TNFα induced MMP-3, MMP-13 and Cox2 expression in presence of inhibitor (rat NP cells [1]; [4]): reduced expression of MMP-3 and MMP-13 only

IL1β: Human recombinant pro-inflammatory cytokine interleukin-1 beta, purchased from Peprotech, used at 10 ng/mL
Fold regulation (IL1β vs NTC), gene Adamts8 (rat NP cells [3]): 139.39
Fold regulation (IL1β vs NTC), gene Cd44 (rat NP cells [3]): 23.57
Fold regulation (IL1β vs NTC), gene Cdh3 (rat NP cells [3]): −6.18
Fold regulation (IL1β vs NTC), gene Col3a1 (rat NP cells [3]): −3.80
Fold regulation (IL1β vs NTC), gene Col4a1 (rat NP cells [3]): 4.24
Fold regulation (IL1β vs NTC), gene Col4a2 (rat NP cells [3]): 3.20
Fold regulation (IL1β vs NTC), gene Ctgf (rat NP cells [3]): −2.40
Fold regulation (IL1β vs NTC), gene Emilin1 (rat NP cells [3]): 4.42
Fold regulation (IL1β vs NTC), gene Hapln1 (rat NP cells [3]): −6.01
Fold regulation (IL1β vs NTC), gene Icam1 (rat NP cells [3]): 6.56
Fold regulation (IL1β vs NTC), gene Itga3 (rat NP cells [3]): 9.22
Fold regulation (IL1β vs NTC), gene Itga5 (rat NP cells [3]): 6.23
Fold regulation (IL1β vs NTC), gene Itgav (rat NP cells [3]): 2.14
Fold regulation (IL1β vs NTC), gene Lamc1 (rat NP cells [3]): 4.24
Fold regulation (IL1β vs NTC), gene MMP3 (rat NP cells [3]): 68.04
Fold regulation (IL1β vs NTC), gene MMP9 (rat NP cells [3]): 1252.77
Fold regulation (IL1β vs NTC), gene MMP13 (rat NP cells [3]): 36.82
Fold regulation (IL1β vs NTC), gene Mmp11 (rat NP cells [3]): −3.86
Fold regulation (IL1β vs NTC), gene Ncam1 (rat NP cells [3]): −2.00
Fold regulation (IL1β vs NTC), gene Thbs1 (rat NP cells [3]): −3.35
Fold regulation (IL1β vs NTC), gene Thbs2 (rat NP cells [3]): −4.14
Fold regulation (IL1β vs NTC), gene Timp1 (rat NP cells [3]): 5.04
phosphorylation levels of c-Raf (S259), p42/44 (Thr202/Tyr204) and p38MAPK (Thr180/Tyr182) (rat NP cells [1]; rat NP cells, 5-60 minutes, no significant change in total protein): increased phosphorylation levels
